2 molecules from patent publication US20260055088A1, “HETEROCYCLIC COMPOUND, METHOD FOR PREPARING SAME, AND PHARMACEUTICAL USE THEREOF” (Jiangsu Hengrui Pharmaceuticals Co., Ltd., priority 2022, published 2026) can be followed below.

Data set [1] in a line: Pharmacokinetic evaluation in CD-1 mice (i.g.). Type of data set: in vivo. The following applies: male, mouse, plasma, po, 100 mg/kg. On the procedure: CD-1 mice were used as test animals. After intragastric (i.g.) administration of the compound of the present disclosure to CD-1 mice, the plasma concentrations of the compound at different time points were determined by the LC/MS/MS method. The pharmacokinetic behavior of the compound of the present disclosure in CD-1 mice was studied, and its pharmacokinetic profile was evaluated.
Nine male CD-1 mice (3 mice per time point), provided by Vital River Laboratory Animal Technology Co., Ltd. (license: SCXK (Zhejiang) 2019-0001). The mice were intragastrically dosed.
A certain amount of the test compound was weighed out, and 25% PEG400+75% (10% TPGS+1% HPMC K100LV) was added to prepare a 10 mg/mL yellowish suspension.
The administration dose was 100 mg/kg, and the administration volume was 10 mL/kg.
The intragastric administration groups: 0.1-mL blood samples were collected from the orbit before administration and 0.25, 0.5, 1.0, 2.0, 4.0, 6.0, 8.0, 11.0, and 24.0 h after administration, placed into EDTA-K2 anticoagulation test tubes, and centrifuged at 10,000 rpm for 1 min (4° C.), and the plasma was separated within 1 h and stored at −80° C. before analysis. The procedures from the blood collection to the centrifugation were performed under ice-bath conditions.
Determination of the plasma concentration of the test compound in CD-1 mice after the compound was administered at different concentrations: A 20-μL sample of the CD-1 mouse plasma collected at each time point after administration was taken, and 200 μL of acetonitrile containing an internal standard (dexamethasone, 100 ng/mL) was added to each sample to precipitate protein. The mixture was vortexed for 5 min and centrifuged at 4000 rpm for 15 min. 40 μL of the supernatant was taken, and 120 μL of water was added. The mixture was vortexed for 5 min, and 0.5 μL of the mixture was taken for LC/MS/MS analysis.

In data set [2] the target is Nav1.8 ion channel stably expressed on HEK293 cells (Homo sapiens (Human), UniProt Q9Y5Y9). The experiment in a line: Inhibitory activity against Nav1.8, manual patch clamp. Type of data set: cell-based. The following applies: resting protocol (-80 mV to 10 mV), 1 μM TTX, read-out: IC50 for the inhibition of Nav1.8 channel activity. An excerpt: The objective of the experiment was to investigate the effects of the compounds on the Nav1.8 ion channel in ex vivo experiments. The Nav1.8 ion channel is stably expressed on HEK293 cells. After the Nav1.8 current stabilized, the effects of the compounds on the Nav1.8 ion channel were obtained by comparing the magnitudes of the Nav1.8 currents before and after the compounds were applied.
• 1) A patch clamp amplifier: patch clamp PC-505B (WARNER instruments)/MultiClamp 700A (Axon instrument) • 2) A digital-to-analog converter: Digidata 1440A (Axon CNS)/Digidata 1550A (Axon instruments) • 3) A micromanipulator: MP-225 (SUTTER instrument) • 4) An inverted microscope: TL4 (Olympus) • 5) Glass micropipette puller: PC-10 (NARISHIGE) • 6) Microelectrode glass capillaries: B12024F (Wuhan VitalSense Scientific Instruments Co., Ltd.) • 7) Dimethyl sulfoxide (DMSO) D2650 (Sigma-Aldrich) • 8) TTX AF3014 (Affix Scientific)
The compounds for preparing the intracellular and extracellular fluids were purchased from Sigma (St. Louis, MO) except for the NaOH and KOH for the acid-base titrations. The extracellular fluid (mM) was: NaCl, 137; KCl, 4; CaCl2, 1.8; MgCl2, 1; HEPES, 10; glucose, 10; pH 7.4 (NaOH titration). The intracellular fluid (mM) was: aspartic acid, 140; MgCl2, 2; EGTA, 11; HEPES, 10; pH 7.2 (CsOH titration). All test and control compound solutions contained 1 μM TTX.
The test compounds were stored at a concentration of 9 mM in dimethyl sulfoxide (DMSO). On the testing day, the compounds were further dissolved in the extracellular fluid to prepare the required concentrations.
1) After the compounds were prepared into solutions with specified concentrations, the compound solutions were sequentially added to channels in ascending order according to their concentrations, and each channel was labeled.
2) A cell was transferred to the perfusion chamber. Positive pressure was applied inside the electrode, and the electrode tip was brought into contact with the cell. The three-way valve of the suction device was switched to the state where all three ways were open, and negative pressure was then applied to the electrode, allowing a high-resistance seal to form between the electrode and the cell. The application of negative pressure was continued to rupture the cell membrane, leading to the formation of a current pathway.
3) After the cell membrane rupture current stabilized, perfusion was performed with different concentrations in sequence. If the current remained stable for at least one minute, perfusion was performed with the next concentration.
4) The perfusion chamber was cleaned. The perfusion chamber was rinsed with the compound solutions in descending order according to their concentrations, with each concentration applied for 20 s. Finally, the perfusion chamber was rinsed with the extracellular fluid for 1 min.
The cell was clamped at −80 mV and then depolarized to 10 mV using a square wave lasting for 10 ms to obtain a Nav1.8 current. This procedure was repeated once every 5 seconds. The maximum current induced by the square wave was detected. After the current stabilized, perfusion was performed with the test compounds. After the reaction stabilized, the strength of the blocking was calculated.
The data were stored on a computer system and analyzed. Data acquisition and analysis were performed using pCLAMP 10 (Molecular Devices, Union City, CA), and the results were reviewed by a manager. “Current stabilized” means that the changes in current over time were within a limited range. The magnitude of the current after stabilization was used to calculate the effect of the compound at this […].
The inhibitory activity of the compounds of the present disclosure against Nav1.8 was determined through the above assay.

A short description of data set [3]: Pharmacokinetic evaluation in SD rats (i.g.). Type of data set: in vivo. To be noted: male, Sprague-Dawley (SD), rat, plasma, po, 50 mg/kg. On the procedure:
SD rats were used as test animals. After intragastric (i.g.) administration of the example compounds to SD rats, the plasma concentrations of the compounds at different time points were determined by the LC/MS/MS method. The pharmacokinetic behaviors of the compounds of the present disclosure in SD rats were studied, and their pharmacokinetic profiles were evaluated.
Compounds 16 and 32: Four male SD rats, provided by Vital River Laboratory Animal Technology Co., Ltd. The animals were fasted overnight and then intragastrically dosed.
Compound 38: Two male SD rats, provided by Zhejiang Vital River Laboratory Animal Technology Co., Ltd. The animals were fasted overnight and then intragastrically dosed.
Compounds 16 and 32: Certain amounts of the test compounds were weighed out, and 5% DMSO+5% tween 80+90% normal saline was added to prepare 0.2 mg/mL colorless clear solutions.
Compound 38: A certain amount of the test compound was weighed out, and 25% PEG400+75% (10% TPGS+1% HPMC K100LV) was added to prepare a 5 mg/mL colorless clear solution.
Compounds 16 and 32: The administration dose was 2 mg/kg, and the administration volume was 10.0 mL/kg.
Compound 38: The administration dose was 50 mg/kg, and the administration volume was 10.0 mL/kg.
0.2-mL blood samples were collected from the orbit before administration and 0.25, 0.5, 1.0, 2.0, 4.0, 6.0, 8.0, 11.0, and 24.0 h after administration, placed into EDTA-K2 anticoagulation test tubes, and centrifuged at 10,000 rpm for 1 min (4° C.), and the plasma was separated within 1 h and stored with dry ice before analysis. The procedures from the blood collection to the centrifugation were performed under ice-bath conditions. Access to food was given 2 h after administration.
Compounds 16 and 32: Determination of the plasma concentrations of the test compounds in SD rats after the compounds were administered at different concentrations: A 25-μL sample of the SD rat plasma collected at each time point after administration was taken, and 200 μL of acetonitrile containing an internal standard (verapamil, 100 ng/mL) was added. The mixture was vortexed and centrifuged at 3700 rpm for 10 min. 0.1 μL of the supernatant was taken for LC/MS/MS analysis.
Compound 38: Determination of the plasma concentration of the test compound in SD rats after the compound was administered at different concentrations: A 25-μL sample of the SD rat plasma collected at each time point after administration was taken, and 200 μL of acetonitrile containing an internal standard (dexamethasone, 100 ng/mL) was added. The mixture was vortexed and centrifuged at 4000 rpm for 15 min. 1 μL of the supernatant was taken for LC/MS/MS analysis.

Data set [4] is described as follows: Pharmacokinetic evaluation in dogs (i.g.). Type of data set: in vivo. To be noted: both sexes, dog, plasma, po, 2 mg/kg. On the procedure:
Dogs were used as test animals. After intragastric (i.g.) administration of the example compound to dogs, the plasma concentrations of the compound at different time points were determined by the LC/MS/MS method. The pharmacokinetic behavior of the compound of the present disclosure in dogs was studied, and its pharmacokinetic profile was evaluated.
The compound of Example 43.
Four dogs, with an equal number of males and females, provided by Weifang Shengnuo Laboratory Animal Breeding Co., Ltd (license: SCXK (Beijing) 2020-0009) and Beijing Institute of Xieerxin Biology Resource Co., Ltd (license: SCXK (Shandong) 20230001). The animals were fasted overnight and then intragastrically dosed.
A certain amount of the example compound was weighed out, and 5% DMSO+20% PG+20% PEG400+55% normal saline was added to prepare a […] colorless clear solution.
The administration dose was 2 mg/kg, and the administration volume was 10.0 mL/kg.
0.5-mL blood samples were collected from a forelimb vein before administration and 0.25, 0.5, 1.0, 2.0, 4.0, 6.0, 8.0, 11.0, 24.0, 48.0, and 72 h after administration, placed into EDTA-K2 anticoagulation test tubes, and centrifuged at 10,000 rpm for 1 min (4° C.), and the plasma was separated within 1 h and stored with dry ice before analysis. The procedures from the blood collection to the centrifugation were performed under ice-bath conditions. Access to food was given 2 h after administration.
Determination of the plasma concentration of the test compound in dogs after the compound was administered at different concentrations: A 50-μL sample of the dog plasma collected at each time point after administration was taken, and 250 μL of acetonitrile containing an internal standard (labetalol, 1 μg/mL) was added. The mixture was vortexed and centrifuged at 3700 rpm for 10 min. 0.5 μL of the supernatant was taken for LC/MS/MS analysis.

Setting [5] is: read-out: Area under curve AUC0-t.
The mark [6] stands for this setting: read-out: Half-life T½ (converted).
Where [7] appears, read: read-out: Plasma concentration Cmax.

`COc1c([C@H]2[C@H](C(=O)Nc3ccnc(C4(N)CC4)c3)O[C@@](C)(C(F)(F)F)[C@H]2C)ccc(F)c1F` [Example 38, (2R,3S,4S,5R)—N-(2-(1-Aminocyclopropyl)pyridin-4-yl)-3-(3,4-difluoro-2-methoxyphenyl)-4,5-dimethyl-5-(trifluoromethyl)tetrahydrofuran-2-carboxamide]: the results for the AUC(0-t) in data set [1] (setting [5]) and in data set [3] (setting [5]) were 76700 ng·h/mL and 18400 ng·h/mL, respectively. Besides, the CL/F in data set [1] (read-out: Clearance rate CL/F) is 20.3 mL/min/kg; in data set [3] (read-out: Clearance rate CL/F), 42 mL/min/kg. The half-life in data set [1] (setting [6]) is 5.8 h; in data set [3] (setting [6]) it was 5.84 h. The values for the Cmax in data set [1] (setting [7]) and in data set [3] (setting [7]) were 6280 ng/mL and 1440 ng/mL, respectively. In addition, the 50% inhibitory concentration (IC50) in data set [2] stood at 2.2 nM.
With `COc1c([C@H]2[C@H](C(=O)Nc3cc[n+]([O-])c(/C(N)=N/O)c3)O[C@@](C)(C(F)(F)F)[C@H]2C)ccc(F)c1F` [Example 43, 4-((2R,3S,4S,5R)-3-(3,4-Difluoro-2-methoxyphenyl)-4,5-dimethyl-5-(trifluoromethyl)tetrahydrofuran-2-carboxamido)-2-((Z)—N′-hydroxycarbamimidoyl)pyridine 1-oxide], in data set [2], the IC50 amounted to 0.3 nM. In addition, the AUC(0-t) in data set [4] (setting [5]) is 250000 ng·h/mL. The CL/F in data set [4] (read-out: Clearance rate CL/F) turned out to be 0.128 mL/min/kg. Also, the half-life in data set [4] (setting [6]) was 34.5 h. For the same molecule, the Cmax in data set [4] (setting [7]) came out at 5680 ng/mL.

By half-life is commonly meant how long it takes for the measured level to halve. The term IC50 denotes the concentration at which inhibition is half-maximal.
